From paper PMC12389136, “Insights into the Structural Patterns in Human Glioblastoma Cell Line SF268 Activity and ADMET Prediction of Curcumin Derivatives” (Pharmaceutics, 2025)
≈ marks a conversion by molar mass, not a printed value.

Columns and labels:
[1] = system: SF268 glioblastoma cells; assay: MTT cytotoxicity in the glioblastoma cell line SF268 (single-concentration screening and IC50); assay type: cell-based, Human; settings: for activity at 10 µg/mL / IC50: Homo sapiens; for activity at 10 µg/mL: SF-268, 48 h, read-out: Growth Screening (%RG); for activity at 10 µg/mL / Growth Screening (%RG): SF268, single concentration 10 µg/mL, 48 h, percentage of relative growth; for IC50: SF-268; for Selectivity Index (SI): Vero versus SF268
Experimental: Cultures were maintained at 37 °C in a 5% CO2 atmosphere and split by trypsin treatment once per week to maintain confluence.
RPMI without cells was used as a color control, and doxorubicin was used as an inhibition control. After treatment, MTT was added to each well, and the absorbance at 570 nm was determined 4 h later using a color plate reader. All bioassays were performed in duplicate, and the IC50 values were determined by the Data Analysis complement Wizard of Excel 2000 (Microsoft, Seattle, WA, USA).

[2] = system: Vero cells; assay: Mammalian cytotoxicity, MTT assay in Vero cells; assay type: cell-based; settings: 48 h; for IC50: Chlorocebus sabaeus
Experimental: Grade IV SF268 glioblastoma cells and Vero epithelial cells were obtained from ATCC and cultured in complete medium consisting of Roswell Park Memorial Institute medium (RPMI-1640) supplemented with 0.05% gentamicin (50 mg/mL) and 10% FBS (fetal bovine serum; Gibco, Invitrogen, Carlsbad, CA, USA). Cultures were maintained at 37 °C in a 5% CO2 atmosphere and split by trypsin treatment once per week to maintain confluence.
For the cytotoxicity assays, Vero cells were cultivated in 96-well plates at 37 °C under a 5% CO2 atmosphere using RPMI-1640 medium with 0.05% gentamicin (50 mg/mL) and 10% FBS (fetal bovine serum). Vero cells were allowed to adhere for 24 h before being incubated for 48 h with the samples. During the treatment, dimethyl sulfoxide (DMSO) was used as a negative control, curcumin (1) was used as a control, and samples were assayed at four different concentrations. After incubation, MTT (3-(4,5-di-methyl-thiazol-2-yl)-2,5-diphenyl-tetrazolium bromide) was added to each well, and the absorbance at 570 nm was determined 4 h later using a color plate reader. Cytotoxicity was evaluated colorimetrically by calculating the ability of the remaining living Vero cells to reduce the pale yellow MTT to the black–purple formazan product, as previously described. All bioassays were performed in duplicate, and the inhibitory concentration (IC50) values were determined using the Data Analysis complement Wizard of Excel 2000 (Microsoft, Seattle, WA, USA).

[3] = system: SF268 cell microtubules; assay: Immunofluorescence staining of microtubules in SF268 cells; assay type: cell-based, Human; settings: SF268, 10 µg/mL, 24 h / 12 h, versus DMSO control
Experimental: SF268 cells were seeded onto 96-well plates and allowed to adhere overnight in complete growth medium (RPMI-1640).
After treatment, the cells were rinsed two times with PBS, fixed in 4% paraformaldehyde (15 min), and permeabilized with 0.5% Triton X-100 (Sigma Aldrich, St. Louis, MO, USA) (5 min). Nonspecific binding was blocked with 5% bovine serum albumin (BSA) in phosphate-buffered saline (PBS) for 1 h. […] Nuclei were counterstained with Hoechst 33342 (15 min), washed 2 times with PBS, and left in PBS at 4 °C in the dark.
Fluorescence images were acquired with an Olympus IX70 microscope (Olympus, Tokyo, Japan) using a 60× objective with identical exposure settings for all conditions. Microtubule density and organization were acquired and analyzed using β-tubulin signals in HCImage Hamamatsu (version 4.8) and ImageJ (version 1.54).
SF268 cells were exposed to media containing either DMSO as a control or curcumin derivatives at 10 μg/mL for 24 h, after which the microtubules were visualized with an α tubulin antibody (yellow), and the cell nuclei were stained with Hoechst (blue).
The cells were then stained with a β-tubulin antibody (yellow) and Hoechst dye (blue) to visualize the nucleus.

[4] = molecular target: T1, Porcine tubulin (Sus scrofa, UniProt P02550+P02554); assay: In vitro tubulin polymerization assay (cell-free kit); assay type: biochemical; settings: 10 µg/mL, 1 h at 37 °C, versus DMSO control
T1 construct: purchased Cytoskeleton Inc., Denver, CO, USA BK011P; host or cells: porcine neural tissue (tissue-purified; that it is brain is my own knowledge of the kit)
Experimental: A Tubulin Polymerization Assay Kit (Porcine tubulin and Fluorescence-based; Cat. # BK011P) (Cytoskeleton Inc., Denver, CO, USA) was used. Neural tubulin (>99% pure cytoskeleton) and tubulin polymerization buffer were mixed with 10 µg/mL curcumin derivatives or the vehicle DMSO at 37 °C in a preheated 96-well plate. The measurement of […] was immediately initiated using a Bio-Tek Synergy HT plate reader (one reading per minute for 1 h, according to the kit instructions). The rate of tubulin polymerization (milli-OD340 units per min) was then calculated for each sample from the linear portion of the kinetics curve, and group mean rates were analyzed for statistical significance.
We used a fluorescence cell-free-based assay to analyze the ability of curcumin to inhibit tubulin polymerization into microtubules in vitro. […]
Figure 5 (A) Tubulin polymerization of compounds 1, 2, 3, 4, 6, and 11. Tubulin polymerization was monitored by the increase in fluorescence at 360 nm (excitation) and 420 nm (emission) for 1 h at 37 °C. […]
The tubulin polymerization activities were determined by measuring fluorescence and recording the area under the curve (AUC). Increasing fluorescence indicates increasing polymerization activity, whereas decreasing fluorescence indicates greater depolymerization activity.

[5] = system: mitochondrial membrane potential of SF268 cancer cells; assay: Mitochondrial membrane potential measurement with DiOC6; assay type: cell-based, Human; settings: 10 µg/mL, 6 h, versus DMSO control
Experimental: Changes in membrane potential were measured by staining cultured cells with the mitochondrial selective dye 3,3′-dihexyloxacarbocyanine (DiOC6) at 10 nM (Thermo Fisher, Waltham, MA, USA). The samples were incubated at 10 μg/mL for 6 h at 37 °C and then stained for 20 min with DiOC6 in the dark. Following incubation, the cells were washed, and the green fluorescence intensity of the DiOC6-stained cells was analyzed with a fluorometer immediately after staining. Incubation for 1 h with the mitochondrial membrane disruptor CCCP, carbonyl cyanide m-chlorophenylhydrazone (50 μM final concentration), was used as a positive control.
Changes in the mitochondrial membrane potential, a common hallmark of programmed cell death, were analyzed in samples with promising activities toward CNS cell line growth. We examined the effects of these compounds on the mitochondrial membrane potential using the dye DiOC6, a fluorophore that accumulates rapidly and selectively inside mitochondria depending on the membrane potential.
Figure 6 Changes in mitochondrial membrane potential caused by the compounds. Fluorometry was used to measure the mitochondrial effects of compounds that inhibited cell growth in culture. A membrane disruptor (CCCP) was added as a positive control, and untreated cultures (DMSO) were used as a negative control. […]

T1 sequence (P02550 whole entry): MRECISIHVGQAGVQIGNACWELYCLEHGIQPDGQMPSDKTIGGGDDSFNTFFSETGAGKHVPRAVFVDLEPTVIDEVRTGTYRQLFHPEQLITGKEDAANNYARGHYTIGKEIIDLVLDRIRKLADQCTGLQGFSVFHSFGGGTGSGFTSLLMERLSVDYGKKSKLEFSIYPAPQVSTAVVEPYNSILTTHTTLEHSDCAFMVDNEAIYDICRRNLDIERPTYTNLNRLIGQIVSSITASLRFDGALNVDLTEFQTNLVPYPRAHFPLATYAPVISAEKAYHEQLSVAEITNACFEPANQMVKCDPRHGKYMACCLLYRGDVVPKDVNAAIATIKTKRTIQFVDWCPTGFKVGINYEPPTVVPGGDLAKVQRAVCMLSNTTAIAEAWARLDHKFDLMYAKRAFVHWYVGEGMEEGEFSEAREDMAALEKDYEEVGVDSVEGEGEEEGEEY
T1 sequence (P02554 whole entry): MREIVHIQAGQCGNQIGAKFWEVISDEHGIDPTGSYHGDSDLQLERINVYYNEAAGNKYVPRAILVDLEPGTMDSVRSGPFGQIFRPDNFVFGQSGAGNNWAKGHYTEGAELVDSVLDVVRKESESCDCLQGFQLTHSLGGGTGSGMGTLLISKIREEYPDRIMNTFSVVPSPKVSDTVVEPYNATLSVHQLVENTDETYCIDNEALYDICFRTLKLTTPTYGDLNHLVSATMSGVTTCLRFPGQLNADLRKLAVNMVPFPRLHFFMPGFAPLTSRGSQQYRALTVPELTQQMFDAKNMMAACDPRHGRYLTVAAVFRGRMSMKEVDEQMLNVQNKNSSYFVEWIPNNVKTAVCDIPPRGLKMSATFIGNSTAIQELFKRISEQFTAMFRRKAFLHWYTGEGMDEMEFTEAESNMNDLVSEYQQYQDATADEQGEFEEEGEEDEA

C=CCOC(=O)CCC(=O)Oc1ccc(/C=C/C(=O)/C=C(O)/C=C/c2ccc(OC(=O)CCC(=O)OCC=C)c(OC)c2)cc1OC [Compound 12, Diallyl O,O′-(((1E,3Z,6E)-3-hydroxy-5-oxohepta-1,3,6-triene-1,7-diyl)bis(2-methoxy-4,1-phenylene)) disuccinate]
activity at 10 µg/mL ([1]; MTT): 49.2%

COc1cc(/C=C/C(=O)/C=C(O)/C=C/c2ccc(OC(=O)CCC(=O)OCc3ccccc3)c(OC)c2)ccc1OC(=O)CCC(=O)OCc1ccccc1 [Compound 14, Dibenzyl O,O′-(((1E,3Z,6E)-3-hydroxy-5-oxohepta-1,3,6-triene-1,7-diyl)bis(2-methoxy-4,1-phenylene)) disuccinate]
activity at 10 µg/mL ([1]; MTT): 85.1%

COc1cc(C=CC(=O)C=C(O)C=Cc2ccc(OC(=O)CCC(=O)OC3CC(C)CCC3C(C)C)c(OC)c2)ccc1OC(=O)CCC(=O)OC1CC(C)CCC1C(C)C (stereo not shown) [Compound 8]
activity at 10 µg/mL ([1]; MTT): 55.2%

COc1cc(/C=C/C(=O)/C=C(O)/C=C/c2ccc(OC(=O)CCC(=O)OC3c4ccccc4-c4ccccc43)c(OC)c2)ccc1OC(=O)CCC(=O)OC1c2ccccc2-c2ccccc21 [Compound 20]
activity at 10 µg/mL ([1]; MTT): 63%

COc1cc(/C=C/C(O)=C/C(=O)/C=C/c2ccc(OC(=O)CCC(=O)OC(c3ccccc3)C3CCCCC3)c(OC)c2)ccc1O (stereo not shown) [Compound 15]
activity at 10 µg/mL ([1]; MTT): 47.9%

Cyclopentyl (4-((1E,3Z,6E)-3-hydroxy-7-(4-hydroxy-3-methoxyphenyl)-5-oxohepta-1,3,6-trien-1-yl)-2-methoxyphenyl) succinate [Compound 5]
Growth Screening (%RG) ([1]; MTT): 50.81%
IC50 VERO [2]: 12.6 µg/mL

COc1cc(/C=C/C(O)=C/C(=O)/C=C/c2ccc(OC(=O)CCC(=O)O[C@@H]3C[C@H](C)CC[C@H]3C(C)C)c(OC)c2)ccc1O [Compound 7]
activity at 10 µg/mL ([1]; MTT): 50.9%

COc1cc(/C=C/C(=O)/C=C(O)/C=C/c2ccc(OC(=O)CCC(=O)OC3C4CC5CC(C4)CC3C5)c(OC)c2)ccc1OC(=O)CCC(=O)OC1C2CC3CC(C2)CC1C3 (stereo not shown) [Compound 10]
activity at 10 µg/mL ([1]; MTT): 52%

COc1cc(/C=C/C(=O)/C=C(O)/C=C/c2ccc(OC(=O)CCC(=O)OC(c3ccccc3)C3CCCCC3)c(OC)c2)ccc1OC(=O)CCC(=O)OC(c1ccccc1)C1CCCCC1 (stereo not shown) [Compound 16]
activity at 10 µg/mL ([1]; MTT): 57.2%

COc1cc(/C=C/C(O)=C/C(=O)/C=C/c2ccc(OC(=O)CCC(=O)OC3C4CC5CC(C4)CC3C5)c(OC)c2)ccc1O (stereo not shown) [Compound 9]
activity at 10 µg/mL ([1]; MTT): 45.6%

COc1cc(/C=C/C(O)=C/C(=O)/C=C/c2ccc(OC(=O)CCC(=O)OC3c4ccccc4-c4ccccc43)c(OC)c2)ccc1O [Compound 19]
activity at 10 µg/mL ([1]; MTT): ≤ 40%
IC50 ([1]; SF268, 48 h, MTT): 1.11 µg/mL (≈ 1.75 µM)
Selectivity Index (SI) [1]: 13.71
IC50 [2]: 15.2 µg/mL (≈ 24 µM)

COC(=O)CCC(=O)Oc1ccc(/C=C/C(=O)/C=C(O)/C=C/c2ccc(O)c(OC)c2)cc1OC [Compound 6]
activity at 10 µg/mL ([1]; MTT): ≤ 40%
IC50 ([1]; SF268, 48 h, MTT): 0.833 µg/mL (≈ 1.73 µM)
Selectivity Index (SI) [1]: 15.45
IC50 [2]: 12.9 µg/mL (≈ 26.7 µM)
microtubule density and organization [3]: significant reduction in microtubule density

1,7-bis(4-hydroxy-3-methoxyphenyl)hepta-1,6-diene-3,5-dione [Compound 1, reference compound]
IC50 SF268 ([1]; SF268, 48 h, MTT): 6.3 µg/mL
IC50 VERO [2]: 15.9 µg/mL

COc1cc(/C=C/C(O)=C/C(=O)/C=C/c2ccc(OC(=O)CCC(=O)OC3CCCc4ccccc43)c(OC)c2)ccc1O (stereo not shown) [Compound 17]
activity at 10 µg/mL ([1]; MTT): 46.8%

Benzyl (4-((1E,3Z,6E)-3-hydroxy-7-(4-hydroxy-3-methoxyphenyl)-5-oxohepta-1,3,6-trien-1-yl)-2-methoxyphenyl) succinate [Compound 13]
Growth Screening (%RG) ([1]; MTT): 49.88%

COc1cc(/C=C/C(=O)/C=C(O)/C=C/c2ccc(OC(C)=O)c(OC)c2)ccc1OC(C)=O [Compound 4, (1E,3Z,6E)-3-hydroxy-5-oxohepta-1,3,6-triene-1,7-diyl)bis(2-methoxy-4,1-phenylene) diacetate]
activity at 10 µg/mL ([1]; MTT): ≤ 40%
IC50 ([1]; SF268, 48 h, MTT): 2.45 µg/mL
Selectivity Index (SI) [1]: 17.16
IC50 [2]: 42.1 µg/mL

COc1cc(/C=C/C(=O)/C=C(O)/C=C/c2ccc(OC(=O)CCC(=O)OC3Cc4ccccc4C3)c(OC)c2)ccc1OC(=O)CCC(=O)OC1Cc2ccccc2C1 [Compound 18]
activity at 10 µg/mL ([1]; MTT): 62.9%

[Ca+2].[Cl-].[Cl-] [calcium chloride]
tubulin polymerization (fluorescence, AUC) [4]: significant decrease in the AUC

C=CCOC(=O)CCC(=O)Oc1ccc(/C=C/C(=O)/C=C(O)/C=C/c2ccc(O)c(OC)c2)cc1OC [Compound 11, Allyl (4-(1E,3Z,6E)-3-hydroxy-7-(4-hydroxy-3-methoxyphenyl)-5-oxohepta-1,3,6-trien-1-yl)-2-methoxyphenyl) succinate]
activity at 10 µg/mL ([1]; MTT): ≤ 40%
IC50 ([1]; SF268, 48 h, MTT): 0.59 µg/mL
Selectivity Index (SI) [1]: 20.17
IC50 [2]: 11.9 µg/mL
microtubule density and organization [3]: significant reduction in microtubule density
mitochondrial membrane potential (DiOC6 fluorescence intensity) [5]: lowest fluorescence intensity

COc1cc(/C=C/C(O)=C/C(=O)/C=C/c2ccc(OCc3ccccc3)c(OC)c2)ccc1O [Compound 2]
IC50 ([1]; SF268, 48 h, MTT): 3.97 µg/mL (≈ 8.65 µM)
IC50 [2]: 11.9 µg/mL (≈ 26 µM)
microtubule density and organization [3]: significant reduction in microtubule density

COc1cc(/C=C/C(O)=C/C(=O)/C=C/c2ccc(OC(C)=O)c(OC)c2)ccc1O [Compound 3]
activity at 10 µg/mL ([1]; MTT): ≤ 40%
IC50 ([1]; SF268, 48 h, MTT): 0.88 µg/mL (≈ 2.14 µM)
IC50 [2]: 13.2 µg/mL (≈ 32.2 µM)
mitochondrial membrane potential (DiOC6 fluorescence intensity) [5]: lowest fluorescence intensity

COc1cc(/C=C/C(O)=C/C(=O)/C=C/c2ccc(OC(=O)CCC(=O)OC(c3ccccc3)c3ccccc3)c(OC)c2)ccc1O [Compound 21]
activity at 10 µg/mL ([1]; MTT): ≤ 40%
IC50 ([1]; SF268, 48 h, MTT): 36.4 µg/mL (≈ 57.4 µM)
Selectivity Index (SI) [1]: 1.26
IC50 [2]: 46 µg/mL (≈ 72.5 µM)

COc1cc(/C=C/C(O)=C/C(=O)/C=C/c2ccc(OC(=O)CCC(=O)OCc3ccc4c(c3)C(=O)c3ccccc3C4=O)c(OC)c2)ccc1O [Compound 22]
activity at 10 µg/mL ([1]; MTT): ≤ 40%
IC50 ([1]; SF268, 48 h, MTT): 58.9 µg/mL (≈ 85.5 µM)
Selectivity Index (SI) [1]: 1.19
IC50 [2]: 72.8 µg/mL (≈ 106 µM)

CC(=O)O[C@H]1C(=O)[C@@]2(C)[C@H]([C@H](OC(=O)c3ccccc3)[C@]3(O)C[C@H](OC(=O)[C@H](O)[C@@H](NC(=O)c4ccccc4)c4ccccc4)C(C)=C1C3(C)C)[C@]1(OC(C)=O)CO[C@@H]1C[C@@H]2O [Paclitaxel]
tubulin polymerization (fluorescence, AUC) [4]: caused an increase in the AUC
